In US20150190369A1, “QUERCETIN-3-GLUCOSIDE AND USES THEREOF” (priority 2012, published 2015):

Tests used:
PCSK9 = assay: ELISA for secreted PCSK9 in conditioned media of Huh7 cells; assay type: cell-based, human; conditions: Huh7, 24 h
Description: Media were collected and PCSK9 levels therein were determined by ELISA.
At passage, Huh7 cells were routinely seeded at sub-confluence (˜10^6 cells/10-cm dish) in Dulbecco's modified Eagle's medium (DMEM) containing 10% fetal bovine serum (FBS) or LPDS (for experiments) and 50 μg/ml gentamycin. They were incubated overnight at 37° C., in a humidified 5% CO2-95% air atmosphere. Cells were treated or not with Q3G at defined concentrations and for defined lengths of time. Media were collected and centrifuged at 200 g for 5 min to sediment suspended cells; supernatants were collected and supplemented with 0.33 volumes of a 3×-concentrated PIC. Cell monolayers were rinsed with ice-cold phosphate-buffered saline (PBS); they were overlaid with 0.5 of the RIPA lysis buffer (50 mM Tris-HCl, pH 8, 150 mM NaCl, 1% NP-40, 0.5% Na-deoxycholate and 0.1% SDS) supplemented with 1× PIC. After 20 min in an ice bath, the lysates were centrifuged at 14,000 g and 4° C. for 20 min, and supernatants were collected. Conditioned media and lysates were stored at −20° C. until analysis.
The assays for PCSK9 and insulin were conducted as prescribed by kit manufacturers, using a Thermo Scientific plate reader. For example, PCSK9 levels in conditioned media were measured using the human PCSK9 ELISA kit from Circulex, as specified the manufacturer. The assay was a sandwich immunoassay using two antibodies (A and B) recognizing different PCSK9 epitopes. Briefly, aliquot of diluted media were overlaid on wells coated with anti-PCSK9 antibody A. After 1-h incubation, the wells were washed, overlaid with a solution of HRP-conjugated anti-PCSK9 antibody B, and incubated for 1 h. They were washed again, and overlaid with a solution of tetra-methylbenzidine as a chromogenic substrate for HRP. After 15 min, the reaction was stopped with ammonium sulfate and the absorbance of the reaction mixtures measured by spectrophotometry at 450 nm. All the steps were performed at room temperature. Standards consisted of recombinant human PCSK9.

SREBP-2 = assay: Immunoblotting for SREBP-2-related proteins (proSREBP-2 proteolytic activation) in Huh7 cells; assay type: cell-based, human; conditions: Huh7, 24 h, 5 μM Q3G, normalized for β-actin
Description: FIGS. 9A and 9B are graphs illustrating the proSREBPs-2 mRNA and SREBP-2-related protein levels for cells exposed to Q3G. Cells were incubated for 24 h in medium 5 μM Q3G. FIG. 9A illustrates the results for quantitative RT-PCR for proSREBPs-2 mRNA levels. Values are the means of triplicate experiments±SEM. FIG. 9B illustrates the results for semi-quantitative immunoblotting for cellular SREBP-2-related protein. […]
At passage, Huh7 cells were routinely seeded at sub-confluence (˜10^6 cells/10-cm dish) in Dulbecco's modified Eagle's medium (DMEM) containing 10% fetal bovine serum (FBS) or LPDS (for experiments) and 50 μg/ml gentamycin. They were incubated overnight at 37° C., in a humidified 5% CO2-95% air atmosphere. Cells were treated or not with Q3G at defined concentrations and for defined lengths of time. Media were collected and centrifuged at 200 g for 5 min to sediment suspended cells; supernatants were collected and supplemented with 0.33 volumes of a 3×-concentrated PIC. […]
Cell lysates were fractionated by SDS-PAGE and electrophoretically transferred onto a polyvinylidene fluoride membrane. […] The signal was captured on X-ray film and immunoreactive bands analyzed by densitometry on a Syngene's ChemiGenius^2XE Bio Imaging System (Cambridge, Mass.) within the dynamic range of the instrument. […]

HNF-1α = assay: Immunoblotting for HNF-1α in cells exposed to Q3G; assay type: cell-based; conditions: cells incubated 24 h with Q3G
Description: FIG. 3 is a graph illustrating hepatocyte nuclear factor la (HNF-1α) expression in cells on exposure to Q3G. Cells were incubated for 24 h in medium containing the indicated concentrations of Q3G. Cells lysates were analyzed by semi-quantitative immunoblotting for the levels of HNF-1α.
Cell lysates were fractionated by SDS-PAGE and electrophoretically transferred onto a polyvinylidene fluoride membrane. The membrane was incubated with a goat antihuman LDLR, rabbit anti-PCSK9, or rabbit anti-SREBP-2 polyclonal antibody at 1:1000, 1:1500, and 1:200 dilutions, respectively, and then with a HRP-conjugated heterospecific secondary antibody against the primary Igs at a 1:2000 dilution. It was probed for HRP reaction using the Western Lightning Chemiluminescence Reagent Plus a chemiluminescence-based revelation kit. The signal was captured on X-ray film and immunoreactive bands analyzed by densitometry on a Syngene's ChemiGenius^2XE Bio Imaging System (Cambridge, Mass.) within the dynamic range of the instrument. The membrane was stripped and reprobed with the anti-β-actin monoclonal primary antibody at 1:20,000 dilution and HRP-conjugated rabbit anti-mouse IgG secondary antibody at a 1:5000 dilution. The densitometric values of β-actin bands were using for normalization of experimental samples.

recombinant human PCSK9 = recombinant human PCSK9 (Homo sapiens, UniProt Q8NBP7); assay: UV spectrometry of PCSK9-Q3G interaction; assay type: binding; conditions: 5 μM PCSK9 with equimolar Q3G in PBS, 5-min incubation
Sequence of recombinant human PCSK9 (Q8NBP7 153-692): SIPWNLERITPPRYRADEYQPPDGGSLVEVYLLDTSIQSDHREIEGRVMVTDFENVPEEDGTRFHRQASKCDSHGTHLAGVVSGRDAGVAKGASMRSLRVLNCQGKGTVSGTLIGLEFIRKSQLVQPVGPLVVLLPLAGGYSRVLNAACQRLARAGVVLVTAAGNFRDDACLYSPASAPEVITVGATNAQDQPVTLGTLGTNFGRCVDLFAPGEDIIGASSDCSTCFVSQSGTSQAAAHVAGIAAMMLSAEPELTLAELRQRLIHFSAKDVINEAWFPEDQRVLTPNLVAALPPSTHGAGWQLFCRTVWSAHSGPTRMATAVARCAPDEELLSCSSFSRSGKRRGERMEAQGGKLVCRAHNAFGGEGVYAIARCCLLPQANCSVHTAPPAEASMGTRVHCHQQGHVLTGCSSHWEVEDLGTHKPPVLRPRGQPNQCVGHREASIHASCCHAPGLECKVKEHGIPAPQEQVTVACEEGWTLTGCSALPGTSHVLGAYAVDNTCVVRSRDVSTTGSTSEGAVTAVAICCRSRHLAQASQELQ
Description: The data discussed herein indicate that chronic exposure of Huh7 cells to Q3G reduces PCSK9 accumulation in the culture medium by delaying its transit through the secretory pathway. The delay appears not to be caused by impaired proteolytic processing of its precursor. Quercetin is known to bind, covalently in some cases, to selected cellular proteins. […] Purified recombinant PCSK9 (5μM) was mixed with or without equimolar amount of Q3G in phosphate-buffered saline. After a 5-min incubation, the UV spectrum of the mix was taken. […] It is believed that such a binding may alter PCSK9 conformation and/or retard its navigation through the secretory pathway, and, ultimately, diminish its LDL-degrading activity.

LDLR mRNA = assay: qRT-PCR for LDLR mRNA in MIN6 β-cells; assay type: cell-based, mouse; design: increase in LDLR mRNA: dose or concentration left out as unconfirmed; conditions: MIN6, 24 h
Description: (§1) Mouse insulinoma MIN6 cells were cultured in a 5% CO2-95% air atmosphere at 37° C. in DMEM medium containing 10% heat-inactivated fetal bovine serum, 1 mM Na-pyruvate, 2 mM L-glutamine, 25 mM D-glucose, and 28 μM β-mercaptoethanol. Q3G at a specific final concentration was supplemented to the culture medium and incubation was conducted for a selected length of time. Media were collected, spun at 600 g to sediment suspended cells, supplemented with 0.5 volumes of 3×RIPA-PIC (1×: 50 mM Tris-HCl, pH 8, 150 mM NaCl, 1% NP-40, 0.5% Na-deoxycholate and 0.1% SDS and PIC). Cells were lysed in 1×RIPA-PIC for immuno-blotting, or in RNA extraction buffer for qRT-PCR.
For the mouse studies, the levels of specific mRNAs were quantified in a PCR-based fluorogenic assay using the Taqman technology (Holland et al., 1991). Briefly, total RNA was extracted using the RNeasy extraction kit and reverse-transcribed into cDNA using random hexameric primers and the Superscript II RNase H-Reverse Transcriptase. The cDNA was used as a template to produce PCR amplicons using FastStart TaqMan ProbeMaster-Rox master mix, primer pairs and the appropriate fluorescent probes) in the Stratagene Mx3005P thermocycler. Standard curves were established using varying amounts of pre-quantified amplicons of each transcript. The level of mRNA for the TATA-box binding protein (TBP) was used for normalization.
(§2) MIN6 β-cells were incubated for 24 h in the presence of different concentrations of Q3G. Total RNA was extracted and analyzed by qRT-PCR for the levels of mRNA for PCSK9, LDLR, ABCA1 and ABCG1.

ABCG1 mRNA = assay: qRT-PCR for ABCG1 mRNA in MIN6 β-cells; assay type: cell-based, mouse; conditions: MIN6, 24 h
Description: as §1
For the mouse studies, the levels of specific mRNAs were quantified in a PCR-based fluorogenic assay using the Taqman technology (Holland et al., 1991). Briefly, total RNA was extracted using the RNeasy extraction kit and reverse-transcribed into cDNA using random hexameric primers and the Superscript II RNase H-Reverse Transcriptase. […] Standard curves were established using varying amounts of pre-quantified amplicons of each transcript. […]
as §2

## O=c1c(O[C@@H]2O[C@H](CO)[C@@H](O)[C@H](O)[C@H]2O)c(-c2ccc(O)c(O)c2)oc2cc(O)cc(O)c12 [Q3G, quercetin-3-O-β-D-glucoside]
PCSK9; co-treatment 5 μM Q3G with simvastatin 0.2 and 1 μM, versus simvastatin alone
  level of PCSK9 in spent media: reducing
PCSK9; highest Q3G concentration tested (0 to 10 μM)
  decrease of PCSK9 in conditioned media: 35%
SREBP-2
  increase of ratio of 65-kDa nuclear SREBP-2 over its 148-kDa ER precursor: up to 4 fold
HNF-1α
  level of HNF-1α: does not change
Recombinant human PCSK9
  interaction with PCSK9 (changes of optical density and spectral profile): suggest interaction
LDLR mRNA; Q3G 8 mM and above
  effect on LDL-receptor mRNA levels: increased
LDLR mRNA; Q3G up to 4 mM
  effect on LDLR mRNA levels: does not affect
LDLR mRNA; maximum Q3G concentration used
  increase in LDLR mRNA: 1.8 fold
ABCG1 mRNA; Q3G 8 mM and above
  effect on ABCG1 mRNA levels: reducing
ABCG1 mRNA; Q3G up to 4 mM
  increase of ABCG1 mRNA levels: about 50%
